{"source": "patent US6534676B2", "about": "“Method to treat chronic heart failure and/or elevated cholesterol levels using 3,5-diiodothyropropionic acid and method to prepare same” (The Arizona Board of Regents on Behalf of the University of …, priority 2001, dated 2003)", "origin": "cited, not measured here", "key": {"[1]": {"settings": "background statement; cited from earlier work"}, "[2]": {"settings": "short-term intravenous, patients with advanced congestive failure; cited from earlier work"}}}
{"smiles": "NC(Cc1cc(I)c(Oc2cc(I)c(O)c(I)c2)c(I)c1)C(=O)O", "note": "[Thyroxine, 3,5,3′5′-L-thyronine]", "values": [{"measurement": "half-life", "setting": "[1]", "result": "140 to 170", "unit": "h"}]}
{"smiles": "N[C@@H](Cc1cc(I)c(Oc2ccc(O)c(I)c2)c(I)c1)C(=O)O", "note": "[T3, 3′,3,5-L-triiodothyrone]", "values": [{"measurement": "half-life", "setting": "[1]", "result": "two days or less"}, {"measurement": "cardiac output and arterial vascular resistance", "setting": "[2]", "result": "improve cardiac output and decrease arterial vascular resistance"}]}
